Results reported in patent US20160355530A1, “HEPATITIS C INHIBITORS AND USES THEREOF” (AbbVie Inc., priority 2010, published 2016).
Like-named read-outs stand apart in the source and are kept apart here.

Assays:
[1] = system: chimeric replicon with genotype 4a NS5B; assay: microbe, parasite or virus in culture; assay type: cell-based, HCV genotype 4a; details: Hepatitis C virus, read-out: 4a chimera 5% FBS EC50
[2] = biological target: T1, HCV NS5B polymerase 1b BK strain (Hepatitis C virus genotype 1b, UniProt P26663); assay: HCV NS5B polymerase enzymatic inhibition assay, strain 1b BK; assay type: biochemical; details: enzyme, strain 1b BK; read-out: HCV Polymerase Strain 1b BK IC50
T1 construct: six-histidine tag; made in house; host or cells: E. coli
Procedure, shortened: (§1)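 Incorporation of [3H]UTP (0.284 μM), alongside 20 μM each CTP and ATP, into RNA copied from a 5 nM 2.1 kb genotype 1b negative-strand template was measured after 3 h at 30° C using purified His-tagged NS5B truncated at residue 570. Product was spermine-precipitated, filtered and scintillation-counted; nonlinear regression gave IC50.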

[3] = system: HCV 1b-BB7 subgenomic replicon; assay: microbe, parasite or virus in culture; assay type: cell-based, HCV genotype 1b; details: Hepatitis C virus, stable replicon
[4] = system: chimeric replicon with genotype 2b NS5B; assay: microbe, parasite or virus in culture; assay type: cell-based, HCV genotype 2b; details: Hepatitis C virus, read-out: 2b chimera 5% FBS EC50
[5] = system: HCV 1a-H77 transient subgenomic replicon in Huh-7 derived cell line; assay: microbe, parasite or virus in culture; assay type: cell-based, HCV genotype 1a; details: Hepatitis C virus, Huh-7; transient replicon, 5% FBS; read-out: Transient Replicon 1a H77 5% FBS EC50
Procedure, shortened: (§2)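 Transient format: T7-transcribed replicon RNA lacking Neo, electroporated into Huh-7-derived cells (5×10^3/well), input RNA checked by luciferase at 4 h. Three-fold compound dilution series, 0.5% DMSO, 4 days at 37° C; EC50 from luciferase signal in lysed cells.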

[6] = system: HCV 1a-H77-C316Y transient subgenomic replicon in Huh-7 derived cell line; assay: microbe, parasite or virus in culture; assay type: cell-based, HCV genotype 1a; details: for EC50: Hepatitis C virus, Huh-7, read-out: Transient Replicon 1a H77-C316Y 5% FBS EC50; for Transient Replicon Fold Resistance C316Y/1a: ratio of transient replicon EC50s, C316Y / 1a H77
Procedure, shortened: as §2

[7] = biological target: T2, HCV NS5B polymerase 1a-H77-C316Y (Hepatitis C virus genotype 1a, UniProt P27958, C2736Y); assay: biochemical; parameters: species or system HCV genotype 1a
T2 construct: six-histidine tag; made in house; host or cells: E. coli
Procedure, shortened: as §1

[8] = system: HCV NS5B polymerase 1a-H77-C316Y; assay: biochemical; parameters: species or system HCV genotype 1a; details: ratio of enzyme IC50s, 1a H77-C316Y / 1a H77
Procedure, shortened: as §1

[9] = biological target: T3, HCV NS5B polymerase 1a-H77 (Hepatitis C virus genotype 1a, UniProt P27958); assay: biochemical; parameters: species or system HCV genotype 1a
T3 construct: six-histidine tag; made in house; host or cells: E. coli
Procedure, shortened: as §1

[10] = system: chimeric replicon with genotype 3a NS5B; assay: microbe, parasite or virus in culture; assay type: cell-based, HCV genotype 3a; details: Hepatitis C virus, read-out: 3a chimera 5% FBS EC50
[11] = system: chimeric replicon with 2a-J6CF-derived NS5B; assay: microbe, parasite or virus in culture; assay type: cell-based, HCV genotype 2a; details: Hepatitis C virus, read-out: 2a chimera 5% FBS EC50
[12] = system: HCV 1a-H77 subgenomic replicon; assay: microbe, parasite or virus in culture; assay type: cell-based, HCV genotype 1a; details: Hepatitis C virus, stable replicon
[13] = strain 1b BB7, 5% FBS + 40% human plasma, read-out: 1b BB7 5% FBS + 40% Human Plasma EC50
[14] = strain 1b BB7, 5% FBS, no human plasma, read-out: 1b BB7 5% FBS EC50
[15] = strain 1b BB7, 5% FBS, read-out: 1b BB7 5% FBS EC50
[16] = 5% FBS, absence of human plasma, read-out: Stable Replicon 1a H77 5% FBS EC50
[17] = strain 1a H77, 5% FBS + 40% human plasma, read-out: 1a H77 5% FBS + 40% Human Plasma EC50
[18] = strain 1a H77, 5% FBS, no human plasma, read-out: 1a H77 5% FBS EC50
[19] = strain 1a H77, 5% FBS, read-out: 1a H77 5% FBS EC50
[20] = enzyme, strain 1a H77, read-out: HCV Polymerase Strain 1a H77 IC50

T3 sequence (P27958 2421-2990): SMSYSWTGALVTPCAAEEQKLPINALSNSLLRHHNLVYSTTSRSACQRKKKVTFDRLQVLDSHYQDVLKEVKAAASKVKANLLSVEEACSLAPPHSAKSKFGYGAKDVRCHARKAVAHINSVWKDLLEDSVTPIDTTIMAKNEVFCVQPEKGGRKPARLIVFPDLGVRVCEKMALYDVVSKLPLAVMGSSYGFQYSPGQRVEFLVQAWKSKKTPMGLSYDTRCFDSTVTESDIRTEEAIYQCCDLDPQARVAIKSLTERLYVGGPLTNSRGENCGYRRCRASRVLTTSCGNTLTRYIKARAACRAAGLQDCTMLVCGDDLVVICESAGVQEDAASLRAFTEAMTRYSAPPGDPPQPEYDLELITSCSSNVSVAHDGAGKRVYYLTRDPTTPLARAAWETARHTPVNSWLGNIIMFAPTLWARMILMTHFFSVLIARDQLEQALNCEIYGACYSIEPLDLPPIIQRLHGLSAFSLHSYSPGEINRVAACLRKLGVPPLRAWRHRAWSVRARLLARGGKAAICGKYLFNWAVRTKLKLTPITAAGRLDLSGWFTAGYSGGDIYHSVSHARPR
T1 sequence (P26663 2420-2989): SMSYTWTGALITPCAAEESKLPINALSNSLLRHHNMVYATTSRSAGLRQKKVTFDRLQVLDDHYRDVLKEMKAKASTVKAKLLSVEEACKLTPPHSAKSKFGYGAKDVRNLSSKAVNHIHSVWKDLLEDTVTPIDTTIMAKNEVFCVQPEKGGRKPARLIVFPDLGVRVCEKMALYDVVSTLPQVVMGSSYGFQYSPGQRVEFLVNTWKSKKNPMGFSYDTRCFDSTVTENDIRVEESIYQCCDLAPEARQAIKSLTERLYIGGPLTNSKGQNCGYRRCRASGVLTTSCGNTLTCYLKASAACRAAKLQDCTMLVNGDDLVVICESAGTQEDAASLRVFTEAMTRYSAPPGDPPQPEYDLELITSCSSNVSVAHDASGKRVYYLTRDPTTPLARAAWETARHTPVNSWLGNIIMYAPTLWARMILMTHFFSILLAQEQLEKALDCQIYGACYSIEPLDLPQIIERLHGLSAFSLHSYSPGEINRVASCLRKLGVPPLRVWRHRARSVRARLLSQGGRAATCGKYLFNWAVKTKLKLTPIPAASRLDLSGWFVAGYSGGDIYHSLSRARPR
T2 sequence (P27958 2421-2990 C2736Y): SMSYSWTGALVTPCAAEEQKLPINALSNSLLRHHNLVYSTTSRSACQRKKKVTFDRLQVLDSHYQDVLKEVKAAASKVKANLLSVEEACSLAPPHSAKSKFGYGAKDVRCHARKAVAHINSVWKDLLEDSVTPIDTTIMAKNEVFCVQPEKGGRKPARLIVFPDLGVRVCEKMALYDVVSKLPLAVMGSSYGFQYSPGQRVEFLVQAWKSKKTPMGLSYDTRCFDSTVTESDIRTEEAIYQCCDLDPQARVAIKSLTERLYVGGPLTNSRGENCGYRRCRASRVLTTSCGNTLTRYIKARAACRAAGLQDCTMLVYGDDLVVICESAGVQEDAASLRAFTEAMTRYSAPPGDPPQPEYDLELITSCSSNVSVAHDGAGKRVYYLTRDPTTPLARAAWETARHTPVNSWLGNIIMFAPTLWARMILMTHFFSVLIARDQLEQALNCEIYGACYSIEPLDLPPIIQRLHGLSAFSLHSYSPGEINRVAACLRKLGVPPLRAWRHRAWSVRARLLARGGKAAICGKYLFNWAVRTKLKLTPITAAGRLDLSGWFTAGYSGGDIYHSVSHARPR

Compound CS(=O)(=O)N(CCCS(N)(=O)=O)c1cc2oc(-c3ccc(F)cc3)c(C3=NOCN3)c2cc1C1CC1 [Example 15, 3-{[5-cyclopropyl-3-(4,5-dihydro-1,2,4-oxadiazol-3-yl)-2-(4-fluorophenyl)-1-benzofuran-6-yl](methylsulfonyl)amino}propane-1-sulfonamide] has an EC50 [1] of 142 nM, an IC50 [2] of 11 nM and an EC50 [3, 13] of 818 nM. It also gave an EC50 [3, 14] of 10 nM, an EC50 [3, 15] of 10 nM and an EC50 [4] of 105 nM. For the same compound, the EC50 [5] was 8.2 nM, the EC50 [6] was 166 nM and the “Transient Replicon Fold Resistance C316Y/1a” value [6] was 20 fold. The IC50 [7] was 31 nM, the “C316Y/1a Fold Resistance” value [8] was 10 fold and the IC50 [9] was 3 nM. The EC50 [10] was 12 nM, the EC50 [11] was 128 nM and the EC50 [12, 16] was 6.5 nM. For the same compound, the EC50 [12, 17] was 1770 nM, the EC50 [12, 18] was 6.5 nM and the EC50 [12, 19] was 6.5 nM.
Compound CS(=O)(=O)N(CCCCO)c1cc2oc(-c3ccc(F)cc3)c(C3=NOCN3)c2cc1C1CC1 [Example 16, N-[5-cyclopropyl-3-(4,5-dihydro-1,2,4-oxadiazol-3-yl)-2-(4-fluorophenyl)-1-benzofuran-6-yl]-N-(4-hydroxybutyl)methanesulfonamide] has an EC50 [1] of 61.3 nM, an IC50 [2] of 18 nM and an EC50 [3, 13] of 2190 nM. The EC50 [3, 14] was 2.5 nM, the EC50 [3, 15] was 2.5 nM and the EC50 [4] was 60.4 nM. The EC50 [5] was 2.6 nM, the EC50 [6] was 43.7 nM and the “Transient Replicon Fold Resistance C316Y/1a” value [6] was 17 fold. The IC50 [7] was 35 nM, the “C316Y/1a Fold Resistance” value [8] was 12 fold and the IC50 [9, 20] was 3 nM. It also gave an EC50 [10] of 5.5 nM, an EC50 [11] of 43.8 nM and an EC50 [12, 16] of 3.8 nM. The EC50 [12, 17] was 411 nM, the EC50 [12, 18] was 3.8 nM and the EC50 [12, 19] was 3.8 nM.
Work on CC(C)CCN(c1cn2nc(-c3ccc(F)cc3)c(-c3ncc[nH]3)c2cc1C1CC1)S(C)(=O)=O [Example 17, N-[5-cyclopropyl-2-(4-fluorophenyl)-3-(1H-imidazol-2-yl)pyrazolo[1,5-a]pyridin-6-yl]-N-(3-methylbutyl)methanesulfonamide] yielded an EC50 [1] of over 1000 nM, an IC50 [2] of 438 nM and an EC50 [3, 13] of 395 nM. The EC50 [3, 14] was 57.2 nM, the EC50 [3, 15] was 57.2 nM and the EC50 [4] was 1000 nM. For the same compound, the EC50 [5] was 55 nM, the EC50 [6] was 838 nM and the “Transient Replicon Fold Resistance C316Y/1a” value [6] was 15 fold. The IC50 [7] was 1800 nM, the “C316Y/1a Fold Resistance” value [8] was 52 fold and the IC50 [9, 20] was 34.9 nM. For the same compound, the EC50 [10] was 148 nM, the EC50 [11] was 1000 nM and the EC50 [12, 16] was 98.9 nM. It also gave an EC50 [12, 17] of 1200 nM, an EC50 [12, 18] of 98.9 nM and an EC50 [12, 19] of 98.9 nM.
CS(=O)(=O)N(CCCC#N)c1cc2oc(-c3ccc(F)cc3)c(-c3ncc[nH]3)c2cc1C1CC1 [Example 49, N-(3-cyanopropyl)-N-[5-cyclopropyl-2-(4-fluorophenyl)-3-(1H-imidazol-2-yl)-1-benzofuran-6-yl]methanesulfonamide] gave an EC50 [1] of 33.9 nM, an IC50 [2] of 17 nM and an EC50 [3, 13] of 28.1 nM. For the same compound, the EC50 [3, 14] was 3 nM, the EC50 [3, 15] was 3 nM and the EC50 [4] was 41.5 nM. The EC50 [5] was 2.2 nM, the EC50 [6] was 76.8 nM and the “Transient Replicon Fold Resistance C316Y/1a” value [6] was 35 fold. The IC50 [7] was 52 nM, the “C316Y/1a Fold Resistance” value [8] was 10 fold and the IC50 [9, 20] was 5 nM. It also gave an EC50 [10] of 3.7 nM, an EC50 [11] of 22.4 nM and an EC50 [12, 16] of 3.7 nM. It also gave an EC50 [12, 17] of 53.9 nM, an EC50 [12, 18] of 3.7 nM and an EC50 [12, 19] of 3.7 nM.
For CCOC(=O)CCCCN(c1cc2oc(-c3ccc(F)cc3)c(-c3ncc[nH]3)c2cc1C1CC1)S(C)(=O)=O [Example 50, ethyl 5-{[5-cyclopropyl-2-(4-fluorophenyl)-3-(1H-imidazol-2-yl)-1-benzofuran-6-yl](methylsulfonyl)amino}pentanoate], the EC50 [1] was 149 nM, the IC50 [2] was 12 nM and the EC50 [3, 13] was 67 nM. For the same compound, the EC50 [3, 14] was 8.7 nM, the EC50 [3, 15] was 8.7 nM and the EC50 [4] was 147 nM. The EC50 [5] was 9.5 nM, the EC50 [6] was 169 nM and the “Transient Replicon Fold Resistance C316Y/1a” value [6] was 18 fold. For the same compound, the IC50 [7] was 104 nM, the “C316Y/1a Fold Resistance” value [8] was 27 fold and the IC50 [9, 20] was 3.9 nM. For the same compound, the EC50 [10] was 15.3 nM, the EC50 [11] was 90.7 nM and the EC50 [12, 16] was 12.2 nM. The EC50 [12, 17] was 97 nM, the EC50 [12, 18] was 12.2 nM and the EC50 [12, 19] was 12.2 nM.
